Laboratory results reported in ChEMBL document CHEMBL5380779, “Small Molecules Targeting the RNA-Binding Protein HuR Inhibit Tumor Growth in Xenografts” (J Med Chem, 2023).
Calls of active or inactive are those of the source. No cut-off for these calls is given here.

Key:
MDA-MB-231 [1] = test: Cytotoxicity against human MDA-MB-231 cells assessed as inhibition of cell growth by MTT assay; assay type: functional, cell-based
[2] = Inhibition of full-length HuR-ARE fluorescein-labeled Msi1 mRNA binding (unknown origin) incubated for 2 hrs by fluorescence polarization assay; design: species or system Homo sapiens
[3] = Inhibition of HuR-ARE fluorescein-labeled Msi1 mRNA binding (unknown origin) by fluorescence polarization assay; design: species or system Homo sapiens
[4] = target: ELAV-like protein 1 (Homo sapiens) (UniProt Q15717); test: Thermal stabilization of HuR in human MDA-MB-231 cells at 20 uM at 42 to 54 degreeC incubated for 1 hr by western blot based cellular thermal shift assay; assay type: cell-based
MDA-MB-231 [5] = test: Inhibition of HuR-Bcl-2 mRNA binding in human MDA-MB-231 cells at 10 uM incubated for 6 hrs by RNP immunoprecipitation assay; assay type: cell-based
MDA-MB-231 [6] = test: Inhibition of HuR-Msi2 mRNA binding in human MDA-MB-231 cells at 10 uM incubated for 6 hrs by RNP immunoprecipitation assay; assay type: cell-based
MDA-MB-231 [7] = test: Inhibition of HuR-XIAP mRNA binding in human MDA-MB-231 cells at 10 uM incubated for 6 hrs by RNP immunoprecipitation assay; assay type: cell-based
MDA-MB-231 [8] = test: Inhibition of cell invasion of human MDA-MB-231 cells at 10 uM incubated for 24 hrs by crystal violet staining based analysis; assay type: functional
MDA-MB-231 [9] = test: Inhibition of HuR-TGFB2 mRNA binding in human MDA-MB-231 cells assessed as half life of TGFB2 in presence of actinomycin D (reference value: 7.202 hrs); assay type: cell-based
MDA-MB-231 [10] = test: Inhibition of HuR-THBS1 mRNA binding in human MDA-MB-231 cells assessed as half life of THBS1 in presence of actinomycin D (reference value: 10.46 hrs); assay type: cell-based
MDA-MB-231 [11] = test: Antitumor activity against human MDA-MB-231 cells xenografted iv dosed athymic NCr-nu/nu mouse assessed as reduction in tumor size administered 3 times a week for 3 weeks; assay type: functional, organism-based
MDA-MB-231 [12] = test: Cytotoxicity against HuR knockout 1 human MDA-MB-231 cells assessed as inhibition of cell growth by MTT assay (reference value: 1.491 uM); assay type: functional, cell-based
MDA-MB-231 [13] = test: Cytotoxicity against HuR knockout 2 human MDA-MB-231 cells assessed as inhibition of cell growth by MTT assay (reference value: 1.491 uM); assay type: functional, cell-based
[14] = target: ELAV-like protein 1 (Homo sapiens) (UniProt Q15717); test: Thermal stabilization of HuR in human MDA-MB-231 cells at 10 uM at 42 to 54 degreeC incubated for 1 hr by western blot based cellular thermal shift assay; assay type: cell-based
MDA-MB-231 [15] = test: Inhibition of HuR-Bcl-2 mRNA binding in human MDA-MB-231 cells at 5 uM incubated for 6 hrs by RNP immunoprecipitation assay; assay type: cell-based
MDA-MB-231 [16] = test: Inhibition of HuR-Msi2 mRNA binding in human MDA-MB-231 cells at 5 uM incubated for 6 hrs by RNP immunoprecipitation assay; assay type: cell-based
MDA-MB-231 [17] = test: Inhibition of HuR-XIAP mRNA binding in human MDA-MB-231 cells at 5 uM incubated for 6 hrs by RNP immunoprecipitation assay; assay type: cell-based
MDA-MB-231 [18] = test: Inhibition of HuR-16-nt biotinylated ARE Msi1 mRNA binding in human MDA-MB-231 cells at 20 uM by Western blotting analysis based pull-down assay; assay type: cell-based
MDA-MB-231 [19] = test: Inhibition of HuR-16-nt biotinylated ARE Msi1 mRNA binding in human MDA-MB-231 cells at 10 uM by Western blotting analysis based pull-down assay; assay type: cell-based
MDA-MB-231 [20] = test: Downregulation of Bcl-2 protein expression in human MDA-MB-231 cells incubated for 48 hrs by Western blotting analysis; assay type: functional, cell-based; conditions: dose 5-10 µM
MDA-MB-231 [21] = test: Downregulation of Msi2 protein expression in human MDA-MB-231 cells incubated for 48 hrs by Western blotting analysis; assay type: functional, cell-based; conditions: dose 5-10 µM
MDA-MB-231 [22] = test: Downregulation of XIAP protein expression in human MDA-MB-231 cells incubated for 48 hrs by Western blotting analysis; assay type: functional, cell-based; conditions: dose 5-10 µM
MDA-MB-231 [23] = test: Downregulation of HuR protein expression in human MDA-MB-231 cells at 5 to 10 uM incubated for 48 hrs by Western blotting analysis; assay type: functional, cell-based; conditions: dose 5-10 µM
MDA-MB-231 [24] = test: Inhibition of cell invasion of human MDA-MB-231 cells at 5 uM incubated for 24 hrs by crystal violet staining based analysis; assay type: functional

Sequence of ELAV-like protein 1 (Homo sapiens) (Q15717 whole entry): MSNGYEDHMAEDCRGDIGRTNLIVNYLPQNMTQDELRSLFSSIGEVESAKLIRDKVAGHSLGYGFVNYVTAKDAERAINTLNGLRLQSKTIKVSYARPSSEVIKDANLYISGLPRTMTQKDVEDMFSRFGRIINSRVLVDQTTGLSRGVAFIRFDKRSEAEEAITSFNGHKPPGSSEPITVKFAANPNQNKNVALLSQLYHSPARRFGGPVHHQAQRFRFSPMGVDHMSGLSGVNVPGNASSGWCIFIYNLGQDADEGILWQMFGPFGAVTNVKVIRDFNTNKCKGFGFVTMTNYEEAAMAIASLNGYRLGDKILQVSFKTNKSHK

SMILES | Ki [2] | IC50 (MDA-MB-231 [1]) | also measured
CCOC(=O)c1cc2cc(NC(=O)c3ccccn3)ccc2[nH]1 | – | > 100 µM | –
O=C(Nc1ccc2sc(C(=O)NO)cc2c1)c1ccccn1 | – | 4.43 µM | –
CCOC(=O)/C=C/c1cc2cc(NC(=O)c3ccc(N(C)C)cc3)ccc2[nH]1 | 4.39 µM | 76.3 µM | –
O=C(O)c1cc2cc([N+](=O)[O-])ccc2[nH]1 | 6.95 µM | – | IC50 [2]: 29.7 µM
CN(C)c1ccc(C(=O)Nc2ccc3[nH]c(C(=O)NO)cc3c2)cc1 | – | 11.3 µM | –
CCOC(=O)c1cc2cc(NC(=O)c3ccc(N(C)C)cc3)ccc2[nH]1 | – | > 100 µM | –
CN(C)c1ccc(C(=O)Nc2ccc3[nH]c(/C=C/C(=O)NO)cc3c2)cc1 | 0.69 µM | 8.91 µM | –
CN(C)c1ccc(C(=O)Nc2ccc3[nH]c(/C=C/C(=O)O)cc3c2)cc1 | 7.76 µM | > 100 µM | –
CC(C)(C)c1ccc(S(=O)(=O)Nc2ccc3sc(/C=C/C(=O)NO)cc3c2)cc1 | – | – | IC50 [3]: 3.34 µM; Ki [3]: 0.783 µM
CC(C)(C)c1ccc(C(=O)O)cc1 | – | – | IC50 [2]: > 200 µM
CN(C)c1ccc(C(=O)Nc2ccc3sc(C(=O)O)cc3c2)cc1 | – | > 100 µM | –
COC(=O)c1cc2cc(NC(=O)c3ccccn3)ccc2s1 | – | > 100 µM | –
O=C(Nc1ccc2[nH]c(C(=O)NO)cc2c1)c1ccccn1 | – | 75.3 µM | Activity [4]: inactive; inhibition (MDA-MB-231 [5]): inactive; inhibition (MDA-MB-231 [6]): inactive; inhibition (MDA-MB-231 [7]): inactive; inhibition (MDA-MB-231 [8]): inactive; T1/2 (MDA-MB-231 [9]): 7.09 h; T1/2 (MDA-MB-231 [10]): 9.03 h
CC(C)(C)c1ccc(S(=O)(=O)Nc2ccc3[nH]c(C(=O)O)cc3c2)cc1 | 6.17 µM | > 100 µM | –
CC(=O)O[C@@]12CO[C@@H]1C[C@H](O)[C@@]1(C)C(=O)[C@H](O)C3=C(C)[C@@H](OC(=O)[C@H](O)[C@@H](NC(=O)OC(C)(C)C)c4ccccc4)C[C@@](O)([C@@H](OC(=O)c4ccccc4)[C@H]21)C3(C)C | – | – | Activity (MDA-MB-231 [11]): Active
CN(C)c1ccc(C(=O)Nc2ccc3sc(C(=O)NO)cc3c2)cc1 | – | 1.31 µM | IC50 (MDA-MB-231 [12]): 3.66 µM; IC50 (MDA-MB-231 [13]): 3.01 µM; Activity [14]: Active; inhibition (MDA-MB-231 [15]): Active; inhibition (MDA-MB-231 [16]): Active; inhibition (MDA-MB-231 [17]): Active; inhibition (MDA-MB-231 [18]): inactive; inhibition (MDA-MB-231 [19]): Active; Activity (MDA-MB-231 [20]): Dose-Dependent Effect; Activity (MDA-MB-231 [21]): Dose-Dependent Effect; Activity (MDA-MB-231 [22]): Dose-Dependent Effect; Activity (MDA-MB-231 [23]): inactive; inhibition (MDA-MB-231 [24]): Active
CCOC(=O)c1cc2cc(NS(=O)(=O)c3ccc(C(C)(C)C)cc3)ccc2[nH]1 | > 20 µM | 31.8 µM | –
CN(C)c1ccc(C(=O)Nc2ccc3[nH]c(C(=O)O)cc3c2)cc1 | – | 99.8 µM | –
CC(C)(C)c1ccc(S(=O)(=O)Nc2ccc3[nH]c(C(=O)NO)cc3c2)cc1 | 1.75 µM | 32 µM | –
COC(=O)c1cc2cc(NC(=O)c3ccc(N(C)C)cc3)ccc2s1 | – | > 100 µM | –
O=C(Nc1ccc2sc(C(=O)O)cc2c1)c1ccccn1 | – | > 100 µM | –
CCOC(=O)/C=C/c1cc2cc(NC(=O)c3ccc(C(C)(C)C)cc3)ccc2[nH]1 | > 20 µM | 1.13 µM | –
CC(C)(C)c1ccc(C(=O)Nc2ccc3[nH]c(C(=O)O)cc3c2)cc1 | – | > 100 µM | –
O=C(Nc1ccc2[nH]c(C(=O)O)cc2c1)c1ccccn1 | – | > 100 µM | –

More lines, main results first:

Ki [2] | SMILES | IC50 (MDA-MB-231 [1]) | also measured
11.8 µM | CCOC(=O)CCc1cc2cc(NC(=O)c3ccc(C(C)(C)C)cc3)ccc2s1 | 6.52 µM | –
5.08 µM | CC(C)(C)c1ccc(C(=O)Nc2ccc3sc(C(=O)O)cc3c2)cc1 | 90.5 µM | –
0.34 µM | CC(C)(C)c1ccc(C(=O)Nc2ccc3[nH]c(/C=C/C(=O)NO)cc3c2)cc1 | 2.24 µM | –
3.35 µM | CC(C)(C)c1ccc(C(=O)Nc2ccc3[nH]c(/C=C/C(=O)O)cc3c2)cc1 | > 100 µM | –
3.24 µM | CC(C)(C)c1ccc(S(=O)(=O)Nc2ccc3sc(C(=O)NO)cc3c2)cc1 | 12.9 µM | –
> 20 µM | CCOC(=O)c1cc2cc(NC(=O)c3ccc(C(C)(C)C)cc3)ccc2[nH]1 | 25.1 µM | –
13.3 µM | CCOC(=O)/C=C/c1cc2cc(NC(=O)c3ccc(C(C)(C)C)cc3)ccc2s1 | 57.7 µM | –
0.44 µM | CC(C)(C)c1ccc(C(=O)Nc2ccc3sc(C(=O)NO)cc3c2)cc1 | 3.71 µM | –
> 20 µM | COC(=O)c1cc2cc(NC(=O)c3ccc(C(C)(C)C)cc3)ccc2s1 | 5.28 µM | –
0.83 µM | CC(C)(C)c1ccc(C(=O)Nc2ccc3sc(CCC(=O)NO)cc3c2)cc1 | 3.49 µM | –
0.15 µM | CC(C)(C)c1ccc(C(=O)Nc2ccc3sc(/C=C/C(=O)NO)cc3c2)cc1 | 1.33 µM | IC50 [3]: 0.597 µM; Ki [3]: 0.139 µM
0.97 µM | CC(C)(C)c1ccc(C(=O)Nc2ccc3sc(/C=C/C(=O)O)cc3c2)cc1 | 72.1 µM | –
2.42 µM | CC(C)(C)c1ccc(S(=O)(=O)Nc2ccc3sc(C(=O)O)cc3c2)cc1 | > 100 µM | –
3.83 µM | CC(C)(C)c1ccc(C(=O)Nc2ccc3sc(CCC(=O)O)cc3c2)cc1 | 19.8 µM | –
15.4 µM | COC(=O)c1cc2cc(NS(=O)(=O)c3ccc(C(C)(C)C)cc3)ccc2s1 | 27.4 µM | –
